Test results: patent publication US12285393B2, “Roles of modulators of intersectin-Cdc42 signaling in Alzheimer's disease” (priority 2017, dated 2025)

Legend:
[1] = test system: microtubule-associated tau; experiment: Tau phosphorylation in the dentate gyrus (antibody AT8 immunostaining); format: in vivo, mice
Description: (§1) Tissue preparation: Mice were deeply anesthetized with 3% isoflourane vapor and euthanized by cervical dislocation. Brain tissues were harvested, and then either snap frozen for Western Blot analysis or fixed in 4% paraformaldehyde overnight for immunohistochemistry (IHC) analysis. Fixed brain tissues were washed with phosphate-buffered saline (PBS) and moved to cryoprotectant (30% sucrose in PBS) at 4° C. Once sunk in the cryoprotectant, brain tissues were subsequently embedded in the optimal cutting temperature compound (O.C.T) and rapidly frozen with chilled isopentane. Then, 8˜30 μm thickness of cryostate section was applied to brain tissues, 30 μm sections were immersed in the PBS and store at 4° C. refrigerator, and 8 μm sections were store at −80° C. refrigerator.
(§2) Immunohistochemistry analysis: All sections were first treated with 1% H2O2 in PBS for 20 minutes at room temperature, then incubated with 0.5% Triton X-100 for 30 minutes and blocked for 30 minutes at room temperature. Brain tissues were incubated with primary antibodies from Table 6, below. […] All sections were eventually dehydrated in 95% ethanol and mounted on coverslips for light microscopy (Carl Zeiss, Thornwood, New York, United States of America).
(§3) Methods: Brain tissues collected from each treatment group of mice from the behavior studies were subjected to pathological analysis (e.g., immunohistochemical analysis, as described above in Example 5). […] Growth cone dynamics and spine motility were either recorded with time-lapse microscopy or stained by using the fluorescein isothiocyanate (FITC) or Cyanine Dye 3 (Cy3)-conjugated Phalloidin.

[2] = Solubility profile by optical density; format: physicochemical; conditions: for solubility: in DM19
Excerpt: ZCL278, ZCL279, and ZCL367 were all tested for solubility in the 5 FDA approved solvents to be used in humans. […] Results are shown below in Tables 2-4. Ratio refers to the optical density of the solution comprising the modulator compound/the optical density of the carder/solvent alone.

WT and 3×Tg-AD mice = experiment: Eyeblink classical conditioning test; format: in vivo
Excerpt: Six-month-old C57/BL6 (WT) and 3×Tg-AD mice with an average weight of 24 g from Jackson Laboratory (Bar Harbor, Maine, United States of America) were used. The 3×Tg-AD mice in hybrid 129/C57BL/6 background contain two mutant human transgenes, hAPP harboring Swedish mutation (hAPPswe) and mutant htau (htau301L) under a neuron-specific promoter, and also contain the knock-in mutant presenilin 1 (PS1M146V). See Oddo et al. (2003) Neuron 39:409-421). 3×Tg-AD mice were received from Jackson Laboratory as Psen1 B6:129-Psen1<tmMpm>Tg(APPSwetauP301L)1Lfa/J and the wild type control as SF2: (B6129SF1/J+p+Tyr-c+Mgf-SIJ)F2. All mice were subjected to two weeks of training for familiarizing behavioral test procedures. Subsequently, mice were assayed to establish a baseline of behavior tests before ZCL compound treatment. Then, mice were separated into three treatment groups (Control, ZCL278 and ZCL279). Both ZCL278 and ZCL279 were dissolved in sesame oil with 5% DMSO and each treatment was administrated via an intraperitoneal injection. All treatment groups of mice were treated once a week. Control group was treated with 130 μl 5% DMSO in sesame oil. ZCL278 and ZCL279 groups were treated with 20 μg/g ZCL 278 or ZCL 279 in sesame oil (5% DMSO). On the day following drug treatment, all mice were subjected to a burrowing test, nesting test and contact avoidance evaluations. On the 4th week of experiment, selected female mice from each group were submitted to Morris water maze test and eye blink test.
Eye blinking test: Eyeblink classical conditioning (ECC) behavior testing was performed based on a method described previously. See Rufer et al., PLoS One, 2012, 7(10):e47499; and Thomas & Tran, Hippocampus, 2012, 22:619-630. Briefly, the day after ZCL compound treatment, two stainless steel recording electrodes (3T, Medwire, Mount Vernon, New York, United States of America) were implanted in the left orbicularis oculi muscle in all mice, and a bipolar stimulating electrode adjacent to the left eye. […]

microglia = experiment: Pro-inflammatory microglia in the hippocampus (Iba-1); format: in vivo; conditions: WT mice; 20× objective lens
Description: as §1, §2, §3

amyloid deposits = experiment: Amyloid deposition in the hippocampus (antibody 4G8 immunostaining); format: in vivo, mice; conditions: for amyloid deposits in the hippocampus: 3×Tg AD mice (untreated: average of 4); for amyloid deposition in the hippocampus: WT mice
Description: as §1, §2, §3

[3] = Dimethyl Sulfoxide (DMSO), RT-3 h
[4] = Polyethylene Glycol300 (PEG-300), 30%, RT-3 h
[5] = 1,2-Propanediol, 40%, 37° C., 1 hour
[6] = Dimethyl Sulfoxide (DMSO), 37° C., 1 hour
[7] = Pluronic F-68, 10%, 37° C., 1 hour
[8] = Polyethylene Glycol300 (PEG-300), 30%, 37° C., 1 hour

Cc1cc(C)nc(NS(=O)(=O)c2ccc(NC(=S)NC(=O)COc3ccc(Br)cc3Cl)cc2)n1 [ZCL278, 4-(3-(2-(4-bromo-2-chloro-phenoxy)-acetyl)-thioureido)-N-(4,6-dimethylpyrimidin-2-yl)-benzenesulfonamide]
phosphorylation of microtubule-associated tau in the dentate gyrus ([1]; 3×Tg AD mice): not evident
phosphorylation of microtubule-associated tau in the dentate gyrus ([1]; WT mice): no evidence
Ratio (optical density solution/solvent alone) ([2]; 1,2-Propanediol, 40%, RT-3 h): 3.154
optical density of solution ([2]; 1,2-Propanediol, 40%, RT-3 h): 0.123
Ratio (optical density solution/solvent alone) [2, 3]: 1.119
optical density of solution [2, 3]: 0.047
Ratio (optical density solution/solvent alone) ([2]; Pluronic F-68, RT-3 h): 2.675
optical density of solution ([2]; Pluronic F-68, RT-3 h): 0.107
Ratio (optical density solution/solvent alone) [2, 4]: 2.275
optical density of solution [2, 4]: 0.091
Ratio (optical density solution/solvent alone) ([2]; Sesame Oil, RT-3 h): 1.395
optical density of solution ([2]; Sesame Oil, RT-3 h): 0.06
Ratio (optical density solution/solvent alone) ([2]; Sterile Water, RT-3 h): 2.211
optical density of solution ([2]; Sterile Water, RT-3 h): 0.084
Ratio (optical density solution/solvent alone) ([2]; Tween 80, 0.4%, RT-3 h): 1.725
optical density of solution ([2]; Tween 80, 0.4%, RT-3 h): 0.069
Ratio (optical density solution/solvent alone) ([2]; dPBS, RT-3 h): 1.795
optical density of solution ([2]; dPBS, RT-3 h): 0.07
solubility [2]: completely soluble
CR percentage (WT and 3×Tg-AD mice; WT mice): did not significantly change
Average Number of Microglia per Microscope Field, CA1 (microglia): 12
Average Number of Microglia per Microscope Field, CA2-3 (microglia): 10
Average Number of Microglia per Microscope Field, DG (microglia): 8
amyloid deposits in the hippocampus (amyloid deposits): no amyloid deposits
amyloid deposition in the hippocampus (amyloid deposits): No amyloid deposition

O=S(=O)(Nc1ccccc1O)c1ccc2oc3ccc(S(=O)(=O)Nc4ccccc4O)cc3c2c1 [ZCL279, N^2,N^8-bis(2-hydroxyphenyl)dibenzo[b,d]furan-2,8-disulfonamide]
phosphorylation of microtubule-associated tau in the dentate gyrus ([1]; 3×Tg AD mice): not evident
phosphorylation of microtubule-associated tau in the dentate gyrus ([1]; WT mice): no evidence
Ratio (optical density solution/solvent alone) [2, 5]: 2.359
optical density of solution [2, 5]: 0.092
Ratio (optical density solution/solvent alone) [2, 6]: 1.071
optical density of solution [2, 6]: 0.045
Ratio (optical density solution/solvent alone) [2, 7]: 2.667
optical density of solution [2, 7]: 0.104
Ratio (optical density solution/solvent alone) [2, 8]: 3.762
optical density of solution [2, 8]: 0.158
Ratio (optical density solution/solvent alone) ([2]; Sesame Oil, 37° C., 1 hour): 1.872
optical density of solution ([2]; Sesame Oil, 37° C., 1 hour): 0.088
Ratio (optical density solution/solvent alone) ([2]; Sterile Water, 37° C., 1 hour): 6.158
optical density of solution ([2]; Sterile Water, 37° C., 1 hour): 0.234
Ratio (optical density solution/solvent alone) ([2]; Tween-80, 0.4%, 37° C., 1 hour): 3.105
optical density of solution ([2]; Tween-80, 0.4%, 37° C., 1 hour): 0.118
Ratio (optical density solution/solvent alone) ([2]; dPBS, 37° C., 1 hour): 3.846
optical density of solution ([2]; dPBS, 37° C., 1 hour): 0.15
solubility [2]: completely soluble
CR percentage (WT and 3×Tg-AD mice; AD mice, after 6 training sessions (control AD mice about 20%)): about 35%
CR percentage (WT and 3×Tg-AD mice; WT mice): did not significantly change
Average Number of Microglia per Microscope Field, CA1 (microglia): 13
Average Number of Microglia per Microscope Field, CA2-3 (microglia): 10
Average Number of Microglia per Microscope Field, DG (microglia): 4
amyloid deposits in the hippocampus (amyloid deposits): no amyloid deposits
amyloid deposition in the hippocampus (amyloid deposits): No amyloid deposition
